Measurements taken from ChEMBL document CHEMBL1201862, “PubChem BioAssay data set” (2004).
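Five compound concentrations were applied to cells in 96-well plates for 48 hours; endpoints were derived by simple linear interpolation of the resulting dose-response curve. GI50 marks 50% less growth.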 Calls of active or inactive are those of the source. No stated cut-off is given here; in the data, active = GI50 up to about 1.1 µM and inactive = higher.

Columns and labels:
Assay in all cases: DTP human tumour cell line panel, 48 h
A498 = test system: A498
EKVX = test system: EKVX
HCC 2998 = test system: HCC 2998
HCT-116 = test system: HCT-116
HOP-62 = test system: HOP-62
HT-29 = test system: HT-29
Hs-578T = test system: Hs-578T
KM12 = test system: KM12
M14 = test system: M14
MDA-N = test system: MDA-N
NCI-H460 = test system: NCI-H460
NCI-H522 = test system: NCI-H522
NCI/ADR-RES = test system: NCI/ADR-RES
OVCAR-3 = test system: OVCAR-3
OVCAR-8 = test system: OVCAR-8
SNB-19 = test system: SNB-19
SR = test system: SR
UACC-62 = test system: UACC-62
DU-145 = test system: DU-145

Measured: GI50

O=C(O[C@H](/C=C/c1ccccc1)P1(=O)N(Cc2ccccc2)[C@@H]2CCCC[C@H]2N1Cc1ccccc1)c1ccccc1
inactive: A498 5.57 µM | EKVX 3.96 µM | HCC 2998 5.9 µM | HCT-116 3.01 µM | HOP-62 5.38 µM | HT-29 3.45 µM | Hs-578T 6.93 µM | KM12 3.24 µM | M14 4.11 µM | MDA-N 3.68 µM | NCI-H460 3.46 µM | NCI-H522 3.95 µM | NCI/ADR-RES 3.18 µM | OVCAR-3 3.68 µM | OVCAR-8 3.95 µM | SNB-19 6.5 µM | SR 3.44 µM | UACC-62 4.86 µM

COc1ccccc1NC(=O)C1=C(C)NC(C)=C(C(=O)Nc2ccccc2OC)C1c1ccc(C(C)C)cc1
inactive: A498 > 100 µM | EKVX 33 µM | HCC 2998 63.7 µM | HCT-116 13.8 µM | HOP-62 > 100 µM | HT-29 > 100 µM | KM12 55.6 µM | M14 > 100 µM | NCI-H460 61.1 µM | OVCAR-3 > 100 µM | OVCAR-8 > 100 µM | SNB-19 > 100 µM | SR 15.5 µM | UACC-62 > 100 µM

O=S(=O)(N=[Se](=O)(c1ccccc1)c1ccccc1)c1ccccc1
inactive: A498 > 100 µM | EKVX > 100 µM | HCC 2998 > 100 µM | HCT-116 > 100 µM | HOP-62 > 100 µM | HT-29 > 100 µM | Hs-578T > 100 µM | KM12 > 100 µM | M14 > 100 µM | MDA-N > 100 µM | NCI-H460 > 100 µM | NCI-H522 > 100 µM | NCI/ADR-RES > 100 µM | OVCAR-3 > 100 µM | OVCAR-8 > 100 µM | SNB-19 60 µM | SR > 100 µM

CCCNC(=S)N/C=C1/C(=O)C=C(C)OC1=O
inactive: DU-145 > 100 µM | EKVX > 100 µM | HCC 2998 > 100 µM | HCT-116 > 100 µM | HOP-62 > 100 µM | HT-29 > 100 µM | KM12 > 100 µM | M14 > 100 µM | MDA-N > 100 µM | NCI-H460 > 100 µM | NCI/ADR-RES > 100 µM | OVCAR-3 > 100 µM | OVCAR-8 > 100 µM | SNB-19 > 100 µM | UACC-62 > 100 µM

O=[N+]([O-])c1cccc2c1[nH]c1c(-c3ccccc3)nccc12
active: NCI-H522 0.849 µM
inactive: A498 3.72 µM | EKVX 3.21 µM | HCC 2998 3.31 µM | HCT-116 2.39 µM | HOP-62 1.87 µM | HT-29 1.58 µM | KM12 3.03 µM | NCI-H460 2.33 µM | NCI/ADR-RES 1.63 µM | OVCAR-3 1.36 µM | OVCAR-8 3.52 µM | SNB-19 3.19 µM | UACC-62 1.74 µM

COc1ccc(/C=C(\C#N)c2ccccn2)cc1OC
inactive: DU-145 32.1 µM | EKVX 5.4 µM | HCC 2998 65.2 µM | HCT-116 31.7 µM | HOP-62 36.7 µM | HT-29 43 µM | KM12 53.1 µM | M14 > 100 µM | MDA-N 42.4 µM | NCI-H460 34.3 µM | NCI-H522 39.8 µM | NCI/ADR-RES 20.4 µM | OVCAR-3 86.1 µM | OVCAR-8 > 100 µM | SNB-19 39.8 µM | SR 33.8 µM | UACC-62 58.7 µM

O=C(O)CCCNS(=O)(=O)c1ccc2ccccc2c1
inactive: A498 > 100 µM | EKVX > 100 µM | HCC 2998 > 100 µM | HT-29 > 100 µM | KM12 > 100 µM | M14 > 100 µM | NCI-H460 > 100 µM | NCI-H522 > 100 µM | OVCAR-3 > 100 µM | OVCAR-8 > 100 µM | SNB-19 > 100 µM | UACC-62 > 100 µM

COc1ccccc1NCc1cccc2c(=O)c3ccc(Cl)cc3oc12
inactive: A498 > 100 µM | EKVX > 100 µM | HCC 2998 > 100 µM | HCT-116 > 100 µM | HOP-62 > 100 µM | HT-29 46.6 µM | KM12 40.1 µM | M14 > 100 µM | MDA-N 93.8 µM | NCI-H522 > 100 µM | NCI/ADR-RES > 100 µM | OVCAR-3 35.8 µM | OVCAR-8 > 100 µM | SNB-19 92.7 µM | SR 83.4 µM | UACC-62 > 100 µM

O=C(Cc1nc2ccc(C(=O)c3ccccc3)cc2nc1O)C(=O)Nc1ccccc1[N+](=O)[O-]
inactive: A498 > 100 µM | EKVX 89.7 µM | HCC 2998 37.2 µM | HCT-116 57 µM | HT-29 47.1 µM | Hs-578T 47.8 µM | KM12 24 µM | M14 92 µM | MDA-N 39.4 µM | NCI-H460 53.6 µM | NCI-H522 34.4 µM | NCI/ADR-RES 45.1 µM | OVCAR-3 > 100 µM | OVCAR-8 33.5 µM | SR 29.2 µM | UACC-62 55.3 µM

CC1=C(/C=C/C(C)=C/C=C/C(C)=C/CO)C(C)(C)CCC1 [RETINOL]
inactive: A498 18.3 µM | DU-145 38.3 µM | EKVX 27.1 µM | HCC 2998 17.3 µM | HOP-62 22.1 µM | HT-29 27.2 µM | KM12 36.1 µM | M14 16.8 µM | MDA-N 36.5 µM | NCI-H460 30.5 µM | NCI-H522 25.5 µM | NCI/ADR-RES 19.5 µM | OVCAR-3 14.3 µM | SNB-19 22.1 µM | SR 18.1 µM | UACC-62 19.5 µM

NS(=O)(=O)c1cc(S(N)(=O)=O)c(NC(=O)N(c2ccccc2)c2ccccc2)c(Cl)c1Cl
inactive: EKVX 19.1 µM | HCC 2998 19.2 µM | HCT-116 38.7 µM | HT-29 19.5 µM | Hs-578T 17.2 µM | KM12 20.3 µM | M14 15.7 µM | MDA-N 24.7 µM | NCI-H460 34.9 µM | NCI-H522 13.2 µM | NCI/ADR-RES 19 µM | OVCAR-3 18.5 µM | OVCAR-8 13.2 µM | SNB-19 40.4 µM | SR 18.4 µM | UACC-62 26.2 µM

COC(=O)/C=C/C1(O)C=CC(=O)C=C1
active: NCI-H522 0.338 µM
inactive: A498 26.9 µM | DU-145 2.59 µM | EKVX 3.61 µM | HCC 2998 7.52 µM | HCT-116 1.88 µM | HOP-62 4.37 µM | HT-29 2.51 µM | KM12 2.32 µM | M14 1.79 µM | MDA-N 1.89 µM | NCI-H460 16.3 µM | NCI/ADR-RES 3.5 µM | OVCAR-3 2.17 µM | OVCAR-8 3.4 µM | SNB-19 3.83 µM | SR 2.55 µM | UACC-62 3 µM

CS(=O)(=O)N(N(CCCl)S(=O)(=O)c1ccccc1)S(C)(=O)=O
inactive: EKVX > 100 µM | HCC 2998 > 100 µM | HCT-116 > 100 µM | HOP-62 > 100 µM | HT-29 > 100 µM | KM12 > 100 µM | M14 > 100 µM | NCI-H460 86.1 µM | NCI-H522 > 100 µM | OVCAR-3 > 100 µM | OVCAR-8 > 100 µM | SNB-19 67.9 µM | SR > 100 µM | UACC-62 > 100 µM
